Common to all, as to assay type: cell-based
For one assay, the target named is T1, BRD4-NUT (Homo sapiens, UniProt O60885+Q86Y26).
T1 construct: endogenous in cells; host or cells: RPMI2650
The assay is described as follows: BRD4-NUT protein degradation by western blotting in RPMI2650 cells (24 h treatment). As to conditions: RPM12650, read-out: BRD4-NUT (DC50). As for the experimental part:
(§1) The synthesized compounds were prepared with a 10 mM or 50 mM raw material solution dissolved in DMSO [dimethyl sulfoxide], and were diluted sequentially and treated. [RPMI2650] and [SNU2972] were cultivated under specific conditions.
(§2) To evaluate the resolution of PROTAC for BRD4 expressed in cells, cells were dispensed in a concentration of 5 X 10^5 cells/well in a 6-well plate, and the sample was treated for 24 hours. […] Protein expression was normalized based on the expression value of β or GAPDH, and protein expression in each sample was measured as % based on 100% of samples treated with 0.1% DMSO vehicle. Protein expression was quantified using Image J program. Change in protein expression volume by compound treatment (DC50: concentration of compounds where 50% protein expression inhibition is achieved) was calculated using the GraphicPad Prism 8.0 software.
(In western blotting, separated proteins are transferred to a membrane and probed.)

In another assay the test system is RPMI2650. The assay is described as follows: Cancer cell antiproliferative activity / cell viability in RPMI2650 cells (72 h treatment). As for the experimental part:
The human breast cancer cell line [MDA-MB-231] was cultured in RPMI medium with the addition of 10% fetal bovine serum, penicillin [100U/ml], and streptomycin [[…]]. The synthesized compounds were prepared with a 10 mM or 50 mM raw material solution dissolved in DMSO [dimethyl sulfoxide], and were diluted sequentially and treated. [RPMI2650] and [SNU2972] were cultivated under specific conditions.
To observe cell growth inhibition, cells were dispensed in a concentration of 5,000 cells/well in a 96-well plate, and samples prepared at various concentrations were treated for 72 hours. The IC50 value (the concentration of the compound achieving 50% cytostaticism) is the average value of the results of three independent measurements.

A further assay deals with BRD4 (Homo sapiens, UniProt O60885). In words: BRD4 protein degradation by western blotting in RPMI2650 cells (24 h treatment). Set-up: To evaluate the resolution of PROTAC for BRD4 expressed in cells; endogenous in cells; host or cells: RPMI2650. As to conditions: RPM12650, read-out: BRD4 (DC50). As for the experimental part: as §1, §2
[1] abbreviates: Homo sapiens, RPMI-2650, RPM12650, read-out: Cell Viatility (IC50).
[2] abbreviates: Homo sapiens, RPMI-2650, 72 h, RPM12650, read-out: Cell Viatility (IC50).
The mark [3] stands for this setting: RPM12650, read-out: Cell Viatility (IC50).

Each structure is given as a SMILES string. Where two headings read alike, the source gives them in different places. A value given as a limit tells only on which side of the number the result lay.

In the case of `CC[C@@H]1c2nnc(C)n2-c2cnc(Nc3ccc(C(=O)N4CCN(c5ccc6c(=O)n(C7CCC(=O)NC7=O)ncc6c5)CC4)cc3OC)nc2N1CC1CCCCC1` (stereo partly drawn) [ICT-0001577], the DC50 on BRD4-NUT and at BRD4 was more than 1000 nM throughout. In the assay on RPMI2650 (setting [1]), the concentration for half-maximal inhibition (IC50) (as a rule, the concentration that gives 50% inhibition) is more than 1000 nM.
Turning to `CC[C@@H]1c2nnc(C)n2-c2cnc(Nc3ccc(C(=O)N4CCN(CCNc5ccc6c(=O)n(C7CCC(=O)NC7=O)nc(C)c6c5)CC4)cc3OC)nc2N1CC1CCCCC1` (stereo partly drawn) [ICT-0001599, 3-(6-((2-(4-(4-(((R)-5-(cyclohexylmethyl)-4-ethyl-1-methyl-4,5-dihydro-[1,2,4]triazolo[4,3-f]pteridine-7-yl)amino)3-methoxybenzoyl)piperazine-1-yl)ethyl)amino)4-methyl-1-oxopthalazine-2(1H)-yl)piperidine-2,6-dione], the half-maximal degradation concentration (DC50) at BRD4-NUT and at BRD4 was less than 100 nM in each case. The half-inhibitory concentration (IC50) in the assay with RPMI2650 (setting [1]) was more than 1000 nM.
With `CC[C@@H]1c2nnc(C)n2-c2cnc(Nc3ccc(C(=O)NC4CCN(CCCN5CCN(c6ccc7c(=O)n(C8CCC(=O)NC8=O)nc(C)c7c6)CC5)CC4)cc3OC)nc2N1CC1CCCCC1` (stereo partly drawn) [ICT-0001568, 4-{[(4R)-5-(cyclohexylmethyl)-4-ethyl-1-methyl-4H,5H-[1,2,4]triazolo[4,3-f]phteridine-7-yl]amino}-N-[1-(3-{4-[2-(2,6-dioxopiperidin-3-yl)-4-methyl-1-oxo-1,2-dihydroptalazine-6-yl}piperazine-1-il}piperidine-4-yl]piperidine-4-yl]-3-methoxybenzamide], the DC50 (in general, the concentration giving 50% degradation) on BRD4-NUT is more than 1000 nM; at BRD4, less than 100 nM. In addition, the IC50 in the assay on RPMI2650 (setting [1]) was more than 1000 nM.
Regarding `CCC1c2nnc(C)n2-c2cnc(Nc3ccc(C(=O)NC4CCN(CCN5CCN(c6ccc(NC7CCC(=O)NC7=O)cc6F)CC5)CC4)cc3OC)nc2N1CC1CCCCC1` [ICT-0001561, 4-{[(4S)-5-(cyclohexylmethyl)-4-ethyl-1-methyl-4H,5H-[1,2,4]triazolo[4,3-f]pteridine-7-yl]amino}-N-{1-[2-(4-{4-[(2,6-dioxopiperidin-3-yl)amino]-2-fluorophenyl}piperazine-1-il)ethyl]piperidine-4-yl}-3-methoxybenzamide], the 50% degradation concentration (DC50) on BRD4-NUT and at BRD4 was less than 100 nM in each case. In the assay on RPMI2650 (setting [1]), the concentration for half-maximal inhibition (IC50) is more than 1000 nM.
Turning to `CC[C@@H]1c2nnc(C)n2-c2cnc(Nc3ccc(C(=O)N4CCN(c5cccc6c(C)nn(C7CCC(=O)NC7=O)c(=O)c56)CC4)cc3OC)nc2N1CC1CCCCC1` (stereo partly drawn) [ICT-0001584, 3-(8-(4-(4-(((R)-5-(cyclohexylmethyl)-4-ethyl-1-methyl-4,5-dihydro-[1,2,4]triazolo[4,3-f]pteridine-7-yl)amino)-3-methoxybenzoyl)piperazine-1-yl)-4-methyl-1-oxopthalazine-2(1H)-yl)piperidine-2,6-dione], the 50% degradation concentration (DC50) at BRD4-NUT and on BRD4 was less than 100 nM in each case. For the same molecule, the 50% inhibitory concentration (IC50) with RPMI2650 (setting [1]) is less than 100 nM.
Regarding `CC[C@@H]1c2nnc(C)n2-c2cnc(Nc3ccc(C(=O)NC4CCN(CCCN5CCN(c6ccc(NC7CCC(=O)NC7=O)cc6F)CC5)CC4)cc3OC)nc2N1CC1CCCCC1` (stereo partly drawn) [ICT-0001572, 4-{[(4R)-5-(cyclohexylmethyl)-4-ethyl-1-methyl-4H,5H-[1,2,4]triazolo[4,3-f]pteridine-7-yl]amino}-N-{1-[3-(4-{4-[(2,6-dioxopiperidin-3-yl)amino]-2-fluorophenyl}piperazine-1-yl)propyl]piperidine-4-yl}-3-methoxybenzamide], the DC50 on BRD4-NUT and on BRD4 was more than 1000 nM each time. Further, the IC50 with RPMI2650 (setting [2]) is more than 1000 nM.
On to `CC[C@H]1c2nnc(C)n2-c2cnc(Nc3ccc(C(=O)N4CCN(c5ccc(NC6CCC(=O)N(C)C6=O)cc5F)CC4)c(OC)c3)nc2N1CC1CCCCC1` (stereo partly drawn) [ICT-0001554, 3-({4-[4-(4-{[(4S)-5-(cyclohexylmethyl)-4-ethyl-1-methyl-4H,5H-[1,2,4]triazolo[4,3-f]pteridine-7-yl]amino}-2-methoxybenzoyl)piperazine-1-yl]-3-fluorophenyl}amino)-1-methylpiperidine-2,6-dione], for which the DC50 at BRD4-NUT and at BRD4 was more than 1000 nM throughout. The IC50 in the assay with RPMI2650 (setting [1]) is more than 1000 nM.
As for `CC[C@H]1c2nnc(C)n2-c2cnc(Nc3ccc(C(=O)NC4CCN(CCC5CCN(c6ccc(NC7CCC(=O)NC7=O)cc6F)CC5)CC4)cc3OC)nc2N1CC1CCCCC1` (stereo partly drawn) [ICT-0001564, 4-{[(4S)-5-(cyclohexylmethyl)-4-ethyl-1-methyl-4H,5H-[1,2,4]triazolo[4,3-f]pteridine-7-yl]amino}-N-{1-[2-(1-{4-[(2,6-dioxopiperidin-3-yl)amino]-2-fluorophenyl}piperidine-4-yl)ethyl]piperidine-4-yl}-3-methoxybenzamide], the DC50 on BRD4-NUT was more than 1000 nM; on BRD4 it was less than 100 nM. Further, the IC50 in the assay on RPMI2650 (setting [3]) was more than 1000 nM.
On to `CC[C@@H]1c2nnc(C)n2-c2cnc(Nc3ccc(C(=O)NC4CCN(CCCC#Cc5ccc6c(=O)n(C7CCC(=O)NC7=O)ncc6c5)CC4)cc3OC)nc2N1CC1CCCCC1` (stereo partly drawn) [ICT-0001534, 4-(((R)-5-(cyclohexylmethyl)-4-ethyl-1-methyl-4,5-dihydro-[1,2,4]triazolo[4,3-f]pteridine-7-yl)amino)N-(1-(5-(2-(2,6-dioxopiperidin-3-yl)1-oxo-1,2-dihydroptalazine-6-yl)pent-4-phosphorus-1-yl)piperidine-4-yl)-3-methoxybenzamide], for which the DC50 at BRD4-NUT and on BRD4 was more than 1000 nM in each case. The IC50 in the assay on RPMI2650 (setting [1]) is more than 1000 nM.
For the molecule `CC[C@@H]1c2nnc(C)n2-c2cnc(Nc3ccc(C(=O)N4CC(CN5CCN(c6ccc7c(=O)n(C8CCC(=O)NC8=O)nc(C)c7c6)CC5)C4)cc3OC)nc2N1CC1CCCCC1` (stereo partly drawn) [ICT-0001557, 3-(6-(4-((1-(4-(((R)-5-(cyclohexylmethyl)-4-ethyl-1-methyl-4,5-dihydro-[1,2,4]triazolo[4,3-f]pteridine-7-yl)amino)3-methoxybenzoyl)azetidine-3-yl)methyl)piperazine-1-yl)4-methyl-1-oxopthalazine-2(1H)-yl)piperidine-2,6-dione], the 50% degradation concentration (DC50) on BRD4-NUT is more than 1000 nM; on BRD4, less than 100 nM. In the assay with RPMI2650 (setting [1]), the IC50 is more than 1000 nM.
`CC[C@@H]1c2nnc(C)n2-c2cnc(Nc3ccc(C(=O)NCCCC#Cc4ccc5c(=O)n(C6CCC(=O)NC6=O)ncc5c4)cc3OC)nc2N1CC1CCCCC1` (stereo partly drawn) [ICT-0001515, 4-(((R)-5-(cyclohexylmethyl)-4-ethyl-1-methyl-4,5-dihydro-[1,2,4]triazolo[4,3-f]pteridine-7-yl)amino)-N-(5-(2-(2,6-dioxopiperidin-3-yl)-1-oxo-1,2-dihydroptalazine-6-yl)pent-4-phosphorus-1-yl)-3-methoxybenzamide]: the DC50 on BRD4-NUT and at BRD4 was more than 1000 nM each time. Moreover, the IC50 in the assay on RPMI2650 (setting [1]) was more than 1000 nM.
On to `CC[C@H]1c2nnc(C)n2-c2cnc(Nc3ccc(C(=O)NC4CCN(CCC5CCN(c6ccc(NC7CCC(=O)NC7=O)cc6F)CC5)CC4)cc3OC)nc2N1CC1CCCCC1` (stereo partly drawn) [ICT-0001562, 4-{[(4S)-5-(cyclohexylmethyl)-4-ethyl-1-methyl-4H,5H-[1,2,4]triazolo[4,3-f]pteridine-7-yl]amino}-N-{1-[2-(1-{4-[(2,6-dioxopiperidin-3-yl)amino]-2-fluorophenyl}piperidine-4-yl)ethyl]piperidine-4-yl}-3-methoxybenzamide], for which the DC50 at BRD4-NUT and at BRD4 was more than 1000 nM in each case. The half-maximal inhibitory concentration (IC50) in the assay with RPMI2650 (setting [3]) lay within 100 to 1000 nM.
On to `CC[C@@H]1c2nnc(C)n2-c2cnc(Nc3ccc(C(=O)N4CCN(c5ccc(NC6CCC(=O)NC6=O)cc5F)CC4)cc3OC)nc2N1CC1CCCCC1` (stereo partly drawn) [ICT-0001517], for which the DC50 on BRD4-NUT and on BRD4 was less than 100 nM each time. Further, in the assay with RPMI2650 (setting [1]), the IC50 is less than 100 nM.
As for `CC[C@@H]1c2nnc(C)n2-c2cnc(Nc3ccc(C(=O)NC4CCN(c5ccc(NC6CCC(=O)NC6=O)cc5F)CC4)cc3OC)nc2N1CC1CCCCC1` (stereo partly drawn) [ICT-0001566, 4-{[(4R)-5-(cyclohexylmethyl)-4-ethyl-1-methyl-4H,5H-[1,2,4]triazolo[4,3-f]pteridine-7-yl]amino}-N-(1-{4-[(2,6-dioxopiperidine-3-yl)amino]-2-fluorophenyl}piperidine-4-yl)-3-methoxybenzamide], the DC50 on BRD4-NUT and at BRD4 was less than 100 nM throughout. In addition, the IC50 with RPMI2650 (setting [2]) was more than 1000 nM.
Regarding `CC[C@@H]1c2nnc(C)n2-c2cnc(Nc3ccc(C(=O)N4CCN(CCNc5ccc6c(=O)n(C7CCC(=O)NC7=O)ncc6c5)CC4)cc3OC)nc2N1CC1CCCCC1` (stereo partly drawn) [ICT-0001603, 3-(6-((2-(4-(4-(((R)-5-(cyclohexylmethyl)-4-ethyl-1-methyl-4,5-dihydro-[1,2,4]triazolo[4,3-f]pteridine-7-yl)amino)3-methoxybenzoyl)piperazine-1-yl)ethyl)amino)1-oxopthalazine-2(1H)-yl)piperidine-2,6-dione], the DC50 on BRD4-NUT and at BRD4 was less than 100 nM throughout. Also, in the assay with RPMI2650 (setting [1]), the concentration for half-maximal inhibition (IC50) is more than 1000 nM.

The values above are taken from patent EP4640686A1, “DEGRADER FOR DEGRADING BRD PROTEIN AND PHARMACEUTICAL COMPOSITION CONTAINING SAME” (Innocure Therapeutics, Inc., priority 2022, dated 2024).
